In patent publication US4073935A, “Substituted propanol-(2)-derivatives and their nicotinic acid esters, and process for their preparation, and the use thereof as hypolipemic drugs” (Klinge Pharma GmbH & Co., priority 1974, dated 1978) one finds inhibition in vivo data, which are given here for 15 compounds.

Each structure is given as a SMILES string. Like-named read-outs stand apart in the source and are kept apart here.

The test system of this assay is serum lipids. The assay can be described thus: Lipid-lowering action in normolipemic rats. The assay is classed as in vivo. The settings on record: Rattus norvegicus, 72 h, 4 × 100 mg/kg oral over 3 days, male Wistar rats, vs controls, X ± Sx. On the procedure: Lipid-lowering action was tested on groups of 10 male Wistar rats (Ivanovas-Kisslegg), weight 200-220 g, normolipemic, or ordinary ration ("ssniff" complete feed).
The test compounds were taken up in an aqueous solution of 0.25% agar and 0.85% NaCl and administered orally. After administration of 4 × 100 mg/kg over a period of 3 days, the animals were bled by cardiac puncture after privation of […] for 4 hours.^1
^1 H. Enomoto and R. Zschocke, 3rd Int. Symp. Atheroscler, Berlin 1973, Abstr. 238.
Serum lipids were determined with a Technicon autoanalyzer. Total cholesterol (TC) was tested by the Liebermann-Burchard reaction. Quantitative analysis for triglycerides (TG) was performed by Eggstein and Kreutz's enzyme method (Klin. Wschr. 44, 262, 1966), modified for autoanalyzer.
Lipid lowering effect is expressed as percent lowering of total cholesterol and triglycerides compared to controls.

The mark [1] stands for this setting: read-out: % Lowering TC (total cholesterol).
[2] abbreviates: read-out: % Lowering TG (triglycerides).

Consider `O=C(O)c1ccc(OCC(O)COc2ccc(Cl)cc2)cc1` (stereo not drawn) [Compound 53, 3-(4'-Carboxyphenoxy)-1-(4'-chlorphenoxy)-propanol-(2)], for which the inhibition in vivo at 100 mg/kg stood at 40.5 ± 13.5% under setting [1] and 83.6 ± 15.5% under setting [2].
On to `O=C(O)c1cccc(OCC(O)COc2ccc(Cl)cc2)c1` (stereo not drawn) [Compound 54, 3-(3'-Carboxyphenoxy)-1-(4'-chlorphenoxy)-propanol-(2)], for which the inhibition in vivo at 100 mg/kg under setting [1] was found to be 28.7 ± 10.2% and the inhibition in vivo at 100 mg/kg under setting [2] came to 80 ± 11.4%.
For `O=C(O)C=Cc1ccc(OCC(O)COc2ccc(Cl)cc2)cc1` (stereo not drawn) [Compound 55, 3-(4'-(2-carboxyvinyl)-phenoxy)-1-(4'-chlorophenoxy)propanol-(2)] the same measures were 45.4 ± 9.2% and 49.9 ± 23.7%.
`O=C(O)CCc1ccc(OCC(O)COc2ccc(Cl)cc2)cc1` (stereo not drawn) [Compound 56, 3-4'-(2-Carboxyathyl)-phenoxy!-1-(4'-chlorphenoxy)-propanol-(2)]: the inhibition in vivo at 100 mg/kg worked out at 48 ± 12.9% under setting [1] and 76.7 ± 7.7% under setting [2].
Regarding `O=C(O)C=Cc1cccc(OCC(O)COc2ccc(Cl)cc2)c1` (stereo not drawn) [Compound 57, 3-3'-(2-Carboxyvinyl)-phenoxy!-1-(4'-chlorphenoxy)-propanol-(2)], the inhibition in vivo at 100 mg/kg under setting [1] stood at 28.4 ± 11.1% and the inhibition in vivo at 100 mg/kg under setting [2] was 61.8 ± 10.9%.
For `O=C(O)CCc1cccc(OCC(O)COc2ccc(Cl)cc2)c1` (stereo not drawn) [Compound 58, 3-3'-(2-Carboxyathyl)-phenoxy!-1-(4'-chlorphenoxy)-propanol-(2)] the same measures were 42.2 ± 5.6% and 71.3 ± 7.6%.
For `CC(C)(C)c1ccc(OCC(O)COc2ccc(C(=O)O)cc2)cc1` (stereo not drawn) [Compound 59, 3-(4'-Carboxyphenoxy)-1-(4'-t-butylphenoxy)-propanol-(2)] the same measures were 45.7 ± 14.3% and 66.7 ± 8.1%.
For `CC(C)(C)c1ccc(OCC(O)COc2ccc(C=CC(=O)O)cc2)cc1` (stereo not drawn) [Compound 61, 3-4'-(2-Carboxyvinyl)-phenoxy!-1-(4'-t-butylphenoxy)-propanol-(2)] the same measures were 44.9 ± 13.8% and 81.2 ± 17.1%.
As to `CC(C)(C)c1ccc(OCC(O)COc2ccc(CCC(=O)O)cc2)cc1` (stereo not drawn) [Compound 62, 3-4'-(2-Carboxyathyl)-phenoxy!-1-(4'-t-butylphenoxy)-propanol-(2)], the inhibition in vivo at 100 mg/kg is, setting by setting: under setting [1], 38.7 ± 15%; under setting [2], 91.9 ± 5%.
Regarding `O=C(O)c1ccc(OCC(O)CNc2ccc(Cl)cc2)cc1` (stereo not drawn) [Compound 65, 3-(4'-Carboxyphenoxy)-1-(4'-chlorphenylamino)-propanol-(2)], the inhibition in vivo at 100 mg/kg reads like this: under setting [1], 20.9 ± 13.7%; under setting [2], 72.9 ± 11.3%.
Regarding `O=C(O)c1ccc(NCC(O)COc2ccc(Cl)cc2)cc1` (stereo not drawn) [Compound 68, 3-(4'-Carboxyphenylamino)-1-(4'-chlorphenoxy)-propanol-(2)], the inhibition in vivo at 100 mg/kg runs as follows: under setting [1], 15.2 ± 10%; under setting [2], 54.1 ± 17%.
In the case of `CC(C)(C)c1ccc(OCC(O)CNc2ccc(C(=O)O)cc2)cc1` (stereo not drawn) [Compound 70, 3-(4'-Carboxyphenylamino)-1-(4'-t-butylphenoxy)-propanol-(2)], the inhibition in vivo at 100 mg/kg runs as follows: under setting [1], 33.3 ± 12.2%; under setting [2], 78.1 ± 10.4%.
The corresponding values for `CC(C)(C)c1ccc(OCC(O)CNc2cccc(C(=O)O)c2)cc1` (stereo not drawn) [Compound 71, 3-(3'-Carboxyphenylamino)-1-(4'-t-butylphenoxy)-propanol-(2)] are 28.9 ± 9.5% and 58.4 ± 15.5%.
With `CC(C)(C)c1ccc(NCC(O)COc2ccc(C(=O)O)cc2)cc1` (stereo not drawn) [Compound 72, 3-(4'-Carboxyphenoxy)-1-(4'-t-butylphenylamino)-propanol-(2)], the inhibition in vivo at 100 mg/kg turned out to be 53.7 ± 10.4% under setting [1] and 75.1 ± 9.9% under setting [2].
Turning to `CC(C)(C)c1ccc(NCC(O)COc2ccc(C=CC(=O)O)cc2)cc1` (stereo not drawn) [Compound 74, 3-4'-(2-Carboxyvinyl)-phenoxy!-1-(4'-t-butylphenylamino)-propanol-(2)], the inhibition in vivo at 100 mg/kg runs as follows: under setting [1], 50.7 ± 6.4%; under setting [2], 69.7 ± 9.6%.
